Laboratory results: patent publication US8906895B2, “Optically active dibenzylamine derivative, and method for preparing thereof” (Kowa Company, Ltd., priority 2010, dated 2014)
Marks after values point to notes of the source that are not given here.

What was measured:
PCSK9 protein = PCSK9 protein amount in HepG2 cells by Western blotting; format: cell-based, human; conditions: 48 hours; for PCSK9 protein amount (Relative value based on value of control taken as 1): 10 μM in culture medium, corrected by β-actin; for PCSK9 protein amount-reducing action in comparison with the control (in words): 10 μM
Protocol: (§1) Influence of a test compound on amount of PCSK9 protein and amount of LDL receptor was studied by adding the test compound to human hepatoma cell strain, HepG2 cells, and measuring amount of PCSK9 protein and amount of LDL receptor (LDLR) by Western blotting after culture for 48 hours.
(§2) Specifically, the HepG2 cells were inoculated on a 6-well plate at a density of 5×10^5 cells/well and cultured overnight, and a test compound dissolved in dimethyl sulfoxide (DMSO), or only DMSO was added to the culture medium in a 1/1000-fold amount. The cells were cultured at 37° C. for 48 hours in a CO2 incubator, the culture was added with 100 μL of the RIPA buffer (50 mM Tris-HCl, pH 7.8, 150 mM NaCl, 1% NP-40, 0.5% sodium deoxycholate, 0.1% SDS, proteinase inhibitor) to disrupt the cells, and proteins were extracted. The extracted proteins were centrifuged at 10000×g, the supernatant was collected, and added with an SDS sample buffer (60 mM Tris-HCl, pH 6.8, 2% SDS, 10% glycerol, 3% mercaptoethanol), and the mixture was subjected to separation by SDS-PAGE (SDS-polyacrylamide gel electrophoresis) using 8% acrylamide gel. After completion of the separation, the proteins were fixed on a nitrocellulose membrane by using iBlot Gel Transfer System (Invitrogen), and blocked by using Block Ace (DS Pharma Biomedical, Catalog No. UK-B 80).
(§3) Detection of the PCSK9 protein, LDLR, and β-actin protein, and measurement of the amounts thereof were performed by labeling the proteins on the membrane using Anti-PCSK9 (Cayman, Catalog No. 1000718), Anti-LDLR (BioVision, Catalog No. 3839-100), and Anti-β-Actin (Sigma, Catalog No. A5316), respectively, as the primary antibody, and Anti-Rabbit IgG-HRP (Sigma, Catalog No. A0545) or Anti-Mouse IgG-HRP (Sigma, Catalog No. A4416) as the secondary antibody, reacting a chemiluminescence reagent (substrate of HRP) with the secondary antibody on the membrane, and then measuring signal intensity using Lumino Image Analyzer LAS-3000 (Fuji Photo Film). The resulting signal intensity wag numprirally evaluated by using image analysis software, Science Lab 2002 Multi Gauge (Fuji Photo Film).
(§4) The resulting measured values of the PCSK9 protein amount and the LDL receptor amount were corrected between those obtained for the sample added with a test compound and the control sample (sample added with only DMSO) using the β-actin protein amounts as index. The corrected PCSK9 protein amount and LDL receptor amount of the test compound addition sample were represented by relative values based on the PCSK9 protein amount and LDL receptor amount of the control sample, respectively, which were taken as 1.

LDL receptor (LDLR) = assay: LDL receptor amount in HepG2 cells by Western blotting; format: cell-based, human; conditions: 48 hours; for LDL receptor amount (Relative value based on value of control taken as 1): 10 μM in culture medium, corrected by β-actin; for LDL receptor amount-increasing action in comparison with the control (in words): 10 μM
Protocol: as §1, §2, §3, §4

[1] = test system: human HMG-CoA reductase mRNA; assay: HMG-CoA reductase mRNA expression in HepG2 cells by quantitative real-time PCR; format: cell-based; conditions: 10 μM, 8 hours; for HMG-CoA reductase mRNA expression amount (Relative value based on average value of control taken as 1): average ± standard error, 3 samples
Protocol: A test compound was added to the HepG2 cells and the cells were cultured for 8 hours, and then HMG-CoA reductase mRNA expression amount was measured by quantitative real-time PCR.
Specifically, the HepG2 cells were inoculated on a 24-well plate at a density of 2×10^5 cells/well and cultured overnight, and then a test compound dissolved in dimethyl sulfoxide (DMSO), or only DMSO was added to the culture medium in a 1/1000-fold amount. The cells were cultured at 37° C. for 8 hours in a CO2 incubator, and then added with 500 μL of ISOGEN (NIPPON GENE, Catalog No. 31-02501), and the total RNA was extracted. cDNA was synthesized from the extracted total RNA by using High Capacity cDNA Reverse Transcription Kit (Applied Biosystems, Catalog No. 4368813). Expression amount of human HMG-CoA reductase mRNA was measured by quantitative real-time PCR using a set of the following primers: 5′-[…]-3′ (SEQ ID No:1) and 5′-[…]-3′ (SEQ ID No:2) specific to human HMG-CoA reductase, and Fast SYBR Green Master Mix (Applied Biosystems, Catalog No. 4385614). As the measurement apparatus, 7900HT Fast Realtime PCR System was used.
The resulting measured values of the HMG-CoA reductase mRNA expression amount were corrected between those obtained for test compound addition samples (3 samples for each compound) and control samples (sample added with only DMSO, 3 samples) using the β-actin mRNA expression amounts as index. The corrected HMG-CoA reductase mRNA expression amount of the test compound addition sample was represented with a relative value (average±standard error) based on average of the HMG-CoA reductase mRNA expression amounts of the control samples, which was taken as 1.

human PCSK9 mRNA = assay: PCSK9 mRNA expression in HepG2 cells by quantitative real-time PCR; format: cell-based; conditions: 10 μM, 24 hours
Protocol: Specifically, the HepG2 cells were inoculated on a 24-well plate at a density of 2×10^5 cells/well and cultured overnight, and then a test compound dissolved in dimethyl sulfoxide (DMSO), or only DMSO was added to the culture medium in a 1/1000-fold amount. The cells were cultured at 37° C. for 24 hours in a CO2 incubator, and then added with 500 μl of ISOGEN (NIPPON GENE, Catalog No. 31-02501), and the total RNA was extracted. cDNA was synthesized from the extracted total RNA by using High Capacity cDNA Reverse Transcription Kit (Applied Biosystems, Catalog No. 4368813). Expression amount of human PCSK9 mRNA was measured by quantitative real-time PCR using primers specific to human PCSK9 (Kourimate S. et al., J. Biol. Chem., Vol. 283, p9666), and Fast SYBR Green Master Mix (Applied Biosystems, Catalog No. 4385614). As the measurement apparatus, 7900HT Fast Realtime PCR System was used.
The resulting measured values of the PCSK9 mRNA expression amount were corrected between those obtained for test compound addition samples (3 samples) and control samples (sample added with only DMSO, 3 samples) using the β-actin mRNA expression amounts as index. […]

[2] = test system: LDL cholesterol in the plasma; assay: Blood LDL cholesterol-reducing action in normal hamsters; format: in vivo, male Syrian hamsters; conditions: for LDL cholesterol-reducing rate: based on control group; for Average LDL cholesterol amount ± standard deviation: plasma 4 hours after final administration, control 50 ± 3.0
Source text: (S)-trans-{4-[({2-[({1-[3,5-Bis(trifluoromethyl)phenyl]ethyl}{5-[2-(methylsulfonyl)ethoxy]pyrimidin-2-yl}amino)methyl]-4-(trifluoromethyl)phenyl}(ethyl)amino)methyl]cyclohexyl}acetic acid ((S)-isomer compound (III), optical purify: >99% ee) was suspended in a 0.5% methylcellulose solution, and orally administered repeatedly to normal hamsters (male Syrian hamsters) once a day over 14 days by using a metal probe. Four hours after the final administration, blood was collected, and plasma was obtained. Lipoproteins in the plasma were analyzed by automatic measurement using an HPLC system based on the post-labeling method according to the method described in J. Lipid. Res., 43, p805-814. Specifically, 15 μL of a plasma sample was diluted 10 times with PBS containing 1 mM EDTA, and 80 μl of the diluted sample was injected into a gel filtration column (Superose 6 column (column size: 10×300 mm), GE Healthcare Bioscience) connected to an HPLC system (liquid feeding unit: Shimadzu LC-20A System, Shimadzu). Separation was performed at a flow rate of 0.5 mL/minute and a column temperature of 40° C. by using PBS containing 1 mM EDTA as a running buffer. A cholesterol-measuring reagent (Cholesterol E-Test Wako, Wako Pure Chemical Industries) was mixed with the eluate from the column at a flow rate of 0.25 mL/minute, and the reaction was performed at 40° C. in a reaction coil (0.5 mm×15 m) with feeding the eluate. Cholesterols in the eluate obtained from the reaction coil were detected at a wavelength of 600 nm. Area ratio of the LDL fraction based on the resulting total peak area of cholesterols was calculated, and the total cholesterol amount measured beforehand by using Cholesterol E-Test Wako was multiplied by the area ratio of the LDL fraction to calculate LDL cholesterol amount.
Six normal hamsters were used for each of the control group (0.5% methylcellulose solution administration group) and the test compound administration groups (10 mg/kg body weight and 30 mg/kg body weight of (S)-isomer compound (III) administration groups). The hamsters were divided into the groups beforehand on the basis of the total plasma cholesterol value.
The symbols * and *** in Table 3 means that there were significant differences at a significance level of 5% or less (p<0.05) and a significance level of 0.1% or less (p<0.001), respectively, as determined by a multi-group comparison test (Dunnett's multiple comparison test) performed between the control group and each of the test compound administration groups. Further, the LDL cholesterol amount-reducing rate of the test compound administration group based on the control group was calculated in accordance with the following equation 1 as an LDL cholesterol-reducing rate, and indicated in terms of percentage. LDL cholesterol-reducing rate(%)=[(Average of LDL cholesterol amount of control group−Average of LDL cholesterol amount of compound administration group)/Average of LDL cholesterol amount of control group]×100 (Equation 1)

[3] = 10 mg/kg orally once a day over 14 days
[4] = 30 mg/kg orally once a day over 14 days

Structure (SMILES): CCN(C[C@H]1CC[C@H](CC(=O)O)CC1)c1ccc(C(F)(F)F)cc1CN(c1ncc(OCCS(C)(=O)=O)cn1)C(C)c1cc(C(F)(F)F)cc(C(F)(F)F)c1 (mixture of isomers) [Racemate compound (I), trans-{4-[({2-[({1-[3,5-Bis(trifluoromethyl)phenyl]ethyl}{5-[2-(methylsulfonyl)ethoxy]pyrimidin-2-yl}amino)methyl]-4-(trifluoromethyl)phenyl}(ethyl)amino)methyl]cyclohexyl}acetic acid, reference compound]
- PCSK9 protein amount (Relative value based on value of control taken as 1) (PCSK9 protein): 0.68
- PCSK9 protein amount-reducing action in comparison with the control (in words) (PCSK9 protein): almost no such actions
- LDL receptor amount (Relative value based on value of control taken as 1) (LDL receptor (LDLR)): 0.73
- LDL receptor amount-increasing action in comparison with the control (in words) (LDL receptor (LDLR)): almost no such actions
- Effect on HMG-CoA reductase mRNA expression amount in comparison with the control (in words) [1]: remarkably reduced
- HMG-CoA reductase mRNA expression amount (Relative value based on average value of control taken as 1) [1]: 0.37 ± 0.02

Structure (SMILES): CCN(C[C@H]1CC[C@H](CC(=O)O)CC1)c1ccc(C(F)(F)F)cc1CN(c1ncc(OCCSC)cn1)C(C)c1cc(C(F)(F)F)cc(C(F)(F)F)c1 (relative stereo) [trans-{4-[({2-[({1-[3,5-Bis(trifluoromethyl)phenyl]ethyl}{5-[2-(methylthio)ethoxy]pyrimidin-2-yl}amino)methyl]-4-(trifluoromethyl)phenyl}(ethyl)amino)methyl]cyclohexyl}acetic acid]
- Effect on HMG-CoA reductase mRNA expression amount in comparison with the control (in words) [1]: remarkably reduced
- HMG-CoA reductase mRNA expression amount (Relative value based on average value of control taken as 1) [1]: 0.25 ± 0.03

Structure (SMILES): CCN(C[C@H]1CC[C@H](CC(=O)O)CC1)c1ccc(C(F)(F)F)cc1CN(c1ncc(OCCS(C)(=O)=O)cn1)[C@H](C)c1cc(C(F)(F)F)cc(C(F)(F)F)c1 [(R)-Isomer compound (II), (R)-trans-{4-[({2-[({1-[3,5-Bis(trifluoromethyl)phenyl]ethyl}{5-[2-(methylsulfonyl)ethoxy]pyrimidin-2-yl}amino)methyl]-4-(trifluoromethyl)phenyl}(ethyl)amino)methyl]cyclohexyl}acetic acid]
- PCSK9 protein amount (Relative value based on value of control taken as 1) (PCSK9 protein): 1.05
- PCSK9 protein amount-reducing action in comparison with the control (in words) (PCSK9 protein): almost no such actions
- LDL receptor amount (Relative value based on value of control taken as 1) (LDL receptor (LDLR)): 0.93
- LDL receptor amount-increasing action in comparison with the control (in words) (LDL receptor (LDLR)): almost no such actions

Structure (SMILES): CCN(C[C@H]1CC[C@H](CC(=O)O)CC1)c1ccc(C(F)(F)F)cc1CN(c1ncc(OCCS(C)(=O)=O)cn1)[C@@H](C)c1cc(C(F)(F)F)cc(C(F)(F)F)c1 [(S)-Isomer compound (III), (S)-trans-{4-[({2-[({1-[3,5-Bis(trifluoromethyl)phenyl]ethyl}{5-[2-(methylsulfonyl)ethoxy]pyrimidin-2-yl}amino)methyl]-4-(trifluoromethyl)phenyl}(ethyl)amino)methyl]cyclohexyl}acetic acid]
- PCSK9 protein amount (Relative value based on value of control taken as 1) (PCSK9 protein): 0.28
- PCSK9 protein amount-reducing action in comparison with the control (in words) (PCSK9 protein): markedly reduced
- LDL receptor amount (Relative value based on value of control taken as 1) (LDL receptor (LDLR)): 1.73
- LDL receptor amount-increasing action in comparison with the control (in words) (LDL receptor (LDLR)): remarkably increased
- Effect on expression amount of PCSK9 mRNA in comparison with the control (in words) (human PCSK9 mRNA): remarkably reduced
- PCSK9 mRNA expression amount (Relative value based on average value of control taken as 1) (human PCSK9 mRNA; average ± standard error, 3 samples): 0.18 ± 0.13
- LDL cholesterol-reducing rate [2, 3]: 20.0%
- Average LDL cholesterol amount ± standard deviation [2, 3]: 40 ± 2.6* mg/dl
- LDL cholesterol-reducing rate [2, 4]: 38.0%
- Average LDL cholesterol amount ± standard deviation [2, 4]: 31 ± 2.6*** mg/dl
- Blood LDL cholesterol-reducing action (in words) ([2]; normal hamsters, 10 and 30 mg/kg orally, 14 days): superior blood LDL cholesterol-reducing action
